The test concerns E. tenella. The test can be described thus: Eimeria infection (coccidiosis) in chickens: survival, body weight, clinical symptoms, gut lesions, excreted oocysts. The note with it: for Body weight Day 21: diet with 6 mg/kg maduramicin or 50 g/kg BPP for 7 days, 6 mg/kg. The format is in vivo. How it is done:
FIGS. 3 A-F show the effect of BPP on the survival rate (FIG. 3A), sick bird appearance (FIG. 3B) and clinical symptoms (FIG. 3C) in the chickens. One-day-old chickens were fed with control diet for 14 days. On day 14, the birds were infected with vehicle (CTR) or E. tenella (ET) and fed with control diet (CTR and ET groups) and the diet containing 6 mg/kg maduramicin (ET+Mad), or 5%, or 1%, or 0.5% of BPP (ET+BPP) for additional 7 days. After the birds were sacrificed, the cecum was dissected and fixed for hematoxylin and eosin Y staining. The representative images of cecal hemorrhagic lesions (FIG. 3D) and histopathology (FIG. 3E) are shown.
One-d-old Lohmann broiler chicks hatched at Taichung Hatchery (Taiwan) were wing-banded upon arrival, weighed, and randomly placed in Petersime starter brooder units. At 1 and 2 d post-hatch, the birds were given free access to water and diets. The diets were formulated by mixing the base diet (Chicken feed, Taiwan Sugar Corporation) with carrier alone (control diet) or the indicated dose of B. pilosa power (BPP diet). In case of cytopiloyne experiments, the animal was administered with 45 μg of isolated cytopiloyne each day. After grouping, birds were tube-fed with Eimeria oocysts. Growth performance (body weight and feed conversion), pathology (bloody droppings and gut morphometry) and survival rate were measured and examined. All birds were maintained in the institutional animal facility and handled according to the guidelines of the Academia Sinica Institutional Animal Care and Utilization Committee.
Since B. pilosa was claimed to treat protozoan and bacterial infections, we tested whether B. pilosa could protect the chickens from coccidiosis. To this end, we infected the […] birds with vehicle and Eimeria oocysts. The birds were given control diet, the control diet mixed with maduramicin, a commercial anti-coccidial, and 10% BPP diet. […] In contrast, 60% of the birds with Eimeria infection survived 7 days post-infection (FIG. 3A). However, treatment with a dose (6 mg/k) of maduramicin and a dose (50 g/kg) of […] BPP increased the survival rate of the birds with Eimeria infection by 30% (FIG. 3A). […] However, treatment with maduramicin and BPP increased body weight from 132.5 g to 145.4 g and 154.3 g. respectively (Table 2). […] One-d-old chickens were fed with control diet for 14 days. On day 14, the birds were infected with vehicle (CTR) or E. tenella (ET) and fed with control diet (CTR and ET groups) and the diet containing 6 mg/kg maduramicin (ET+Mad) or 50 g/kg BPP (E+T BPP) for additional 7 days. Body weight was measured. The number of the birds in each group is indicated in the parentheses.
Next, we checked clinical symptoms of the chickens with or without Eimeria infection. […] In contrast, the birds with Eimeria infection show the typical sick bird appearances (FIG. 3B). […] In contrast, treatment with maduramicin or BPP reduced bloody droppings and diarrhea (FIG. 3C).
The gut lesions of the birds 7 days post-infection were also examined. Hemorrhagic lesions in the cecum of the birds infected with Eimeria oocysts were observed (FIG. 3D). In contrast, treatment with maduramicin and BPP alleviated the severity of hemorrhagic lesions (FIG. 3D).
The excretion of oocysts is an important indicator of the efficacy of anti-coccidial drug. Thus, we assessed the number of excreted oocysts from the chickens with Eimeria infection. […] The data on the effect of BPP on the reduction of the excreted oocysts are consistent with the alleviation of the clinical symptoms by BPP. […] One-d-old chickens were fed with control diet for 14 days. On day 14, the birds were infected with vehicle (CTR) or E. tenella (ET) and fed with control diet (CTR and ET groups) and the diet containing 6 mg/kg maduramicin (ET+Mad) or 50 g/kg BPP (ET+BPP) for additional 7 days. The number of the excreted oocysts in the feces (oocysts per gram) of the birds was determined. […]

Where [1] appears, read: E. tenella infected on day 14, diet with 6 mg/kg maduramicin or 50 g/kg BPP.
The mark [2] stands for this setting: Eimeria infected birds given diet with maduramicin or BPP.

Molecules are shown by their SMILES.

`CO[C@@H]1[C@@H](OC)[C@H](C)[C@@](O)(CC(=O)O)O[C@H]1[C@H](C)[C@H]1O[C@@]2(CC[C@@](C)([C@H]3CC[C@@](C)([C@@H]4O[C@@H]([C@H]5O[C@](C)(O)[C@H](C)C[C@@H]5C)C[C@@H]4O[C@@H]4C[C@H](OC)[C@@H](OC)[C@H](C)O4)O3)O2)C[C@H](O)[C@H]1C` [maduramicin, Maduramicin]: under “6 mg/kg maduramicin or 50 g/kg BPP diet”, the “Number of the excreted oocysts in the infected birds” value was “reduced half”. The “Severity of hemorrhagic lesions in the cecum” value (7 days post-infection) is “alleviated”. Moreover, the “Number of villi and depth of crypts in the gut” value (7 days post-infection, histostaining) is listed as “increased”. Also, under setting [1], the “Excreted oocysts in the feces Day 4” value stood at 5 ± 0.3 oocysts per gram, the “Excreted oocysts in the feces Day 5” value is 78 ± 3.8 oocysts per gram, the “Excreted oocysts in the feces Day 6” value is 187 ± 4.7 oocysts per gram and the “Excreted oocysts in the feces Day 7” value is on record as 343 ± 52.2 oocysts per gram. The “Body weight Day 21” value (E. tenella infected on day 14) was determined as 145.4 g. The “Body weight Day 21” value (E. tenella infected on day 14, listed as Mad) is on record as 145.4 ± 6.2 g. Under setting [2], the “Bloody droppings and diarrhea” value is given as “reduced”; the “Sick bird appearance (droopiness, listlessness, ruffled feather)” value is listed as “no obvious sick bird appearance”.
